These results are taken from EP0612845A2 (priority 1993, dated 1994).

Test [1] concerns the target T1, m-opiate receptor (mOR) cDNA RC8-1 expressed in COS cells (Rattus norvegicus, UniProt P33535).
T1 construct: expressed in transfected cells; host or cells: COS cells, transient electroporation with pcDNA1RC8-1; membranes
The class given is binding.

The target of test [2] is rat brain opioid receptor. Kind of test: Competition with [125I]b-endorphin for binding to rat brain membranes (analytical microtiter plate assay). The method, then:
Whole male rat brains frozen in liquid N₂ are purchased from Pel-Freez (Rogers, AR). All procedures for membrane preparation are carried out at a temperature of 2-6 °C. The brains are homogenized in a Waring blender in a buffer containing 1 mM Na-bicarbonate (pH 7.2), 1 mM EDTA, 1 mM EGTA (all chemicals from Sigma Chemical, St. Louis, MO) and 0.7% (vol./vol.) of the 100X 4Pase protease inhibitor mixture (see "Protease Inhibitors" below). The ratio of tissue/homogenization medium is from 25-35 gm of brain/500 ml. The blender is controlled through a variable output rheostat (Staco Energy Products, Dayton, OH; type 3PN1010) at a setting of 40. The homogenate is centrifuged for 10 minutes at 1,000 x g pellet is rehomeginized in 500 ml of homogenization medium and recentrifuged for 10 minutes at 1,000 x g. The 1,000 x g pellet is discarded. The 1,000 x g supernatants are combined and centrifuged for 30 minutes at 20,000 x g. The 20,000 x g membrane pellet is washed by being resuspended with a Dounce homogenizer in 500 ml of homogenization medium supplemented with 10 mM EDTA (pH readjusted to 7.4) and then washed twice by being resuspended in 25 mM Tris buffer (Sigma Chemical Co.; pH 7.4) and centrifuged for 25 minutes at 20,000 x g. The final membrane pellet is resuspended in 25 mM inhibitor mixture to a protein concentration of 4-12 mg/ml. The resuspended membranes are aliquoted, frozen on dry ice and stored at -90 °C.
Binding of [¹²⁵I]-labelled b-endorphin, b-endorphin and other b-endorphin analogs and opioids is done in a binding buffer containing 50 mM HEPES (Sigma; pH 7.4; pHed with KOH), 0.1% (w/v) bovine serum albumin (Miles Laboratories, Elkhart, IN) and protease inhibitors as specified below for specific applications. All binding incubations are carried out at room temperature (20-23 °C). • A. Analytical - This assay is carried out in 96 well microtiter plates (Immulon II with snap-off wells; Dynatech, Chantille, VA). To carry out the assay, the following components are added to the wells in the order and volumes shown: (1) […] of nonlabelled ligand. For this purpose, ligands (for example b-endorphin or biotinylated b-endorphin) are made up at 40X the desired final concentration in the 40X P/B/Pz protease inhibitor mixture (Experimental Procedures. 4.C.) (2) […] of [¹²⁵I]b-endorphin in binding buffer + 1/100 volume of the 100X 4Pase protease inhibitor mixture; mix briefly on a microtiter plate shaker (Dynatech Micro-Shaker II, Dynatech, Chantilly, VA). (3) […] of rat brain membrane diluted in binding buffer + […] volume of 100X 4Pase to deliver […] of membrane protein per well. The plates are then covered with Linbro Mylar plate sealers (Flow Labs, McLean, VA) and incubated for 1 hour at room temperature (20-23 °C). The membranes are pelleted by centrifugation at 2,000 x g, the supernatants (containing nonbound ligands) are decanted and the pellets are washed by the addition of […] of ice cold binding buffer, brief shaking and recentrifugation. CPM of [¹²⁵I] in the final membrane pellets is then counted in a gamma counter (LKB Gammamaster 1277; 80% efficiency). • B. Preparative - Rat brain membranes are diluted to a concentration of 0.5 mg of membrane protein/ml in binding buffer containing 1/400 (vol./vol.) of the 400X P/B/Bz protease inhibitor mixture (see Section 4). […] In this case, the blocking ligand is added from 5-15 minutes prior to the addition of biotinyl-b-endorphin. In some cases only the blocking ligand is added. […]

For test [3], the system named is [¹²⁵I]b-Endorphin: Opioid Receptor Complex. Kind of test: Dissociation of the solubilized R:L complex, measured by binding to WGA-agarose. It is filed as biochemical, rat.
Test [4] concerns the target T1, m-opiate receptor (mOR) cDNA RC8-1 expressed in COS cells. The class given is binding. The source holds these as a separate data set.
Setting [5] is: competition with [¹²⁵I]b-endorphin, rat brain membranes, read-out: IC₅₀s for reduction of radioligand binding by competition with cold ligand.
The mark [6] stands for this setting: reanalysis, F1 fraction heated at 50°C for 5 min, read-out: IC50 for binding to receptors in rat brain membranes by competition vs. [¹²⁵I]b-endorphin (reanalysis).

Read-outs that look alike come from different tables or passages of the source.

T1 sequence (P33535 whole entry): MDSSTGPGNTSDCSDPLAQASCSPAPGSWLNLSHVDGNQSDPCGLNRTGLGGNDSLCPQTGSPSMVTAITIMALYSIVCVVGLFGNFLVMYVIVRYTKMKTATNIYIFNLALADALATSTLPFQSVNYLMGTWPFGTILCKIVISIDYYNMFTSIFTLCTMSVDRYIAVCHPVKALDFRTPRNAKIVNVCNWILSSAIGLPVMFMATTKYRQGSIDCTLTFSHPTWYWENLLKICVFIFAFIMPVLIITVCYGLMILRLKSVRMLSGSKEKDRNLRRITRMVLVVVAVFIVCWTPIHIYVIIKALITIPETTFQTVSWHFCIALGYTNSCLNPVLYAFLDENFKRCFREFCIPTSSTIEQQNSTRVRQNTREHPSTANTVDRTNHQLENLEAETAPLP

Regarding `CN1CC[C@]23c4c5ccc(O)c4O[C@H]2[C@@H](O)C=C[C@H]3[C@H]1C5` [Morphine], the “potency in displacing binding of [³H]DAMGO” value in test [1] was “high potency”.
For the molecule “[biotinyl-Lys³²]b-endorphin [biotinyl-b-endorphin (F1)]”, the IC50 in test [2] (setting [5]) was found to be 1 nM.
As for `Nc1nc2c(ncn2[C@@H]2O[C@H](COP(=O)(O)OP(=O)(O)OP(O)(O)=S)[C@@H](O)[C@H]2O)c(=O)[nH]1` [GTP-g-S], the “dissociation of receptor from ligand” value in test [3] (GTP analog alone, without NaCl) is listed as “about 30%”. Moreover, the “% Decrease in R:L Complex” value in test [3] (Table 1, 100 mM GTP-g-S, 10 minutes at room temperature) was 34%; in test [3] (Table 2, 100 mM GTP-g-S + 25 mM NaCl), 77%; in test [3] (Table 2, 100 mM GTP-g-S + 50 mM NaCl), 90%; in test [3] (Table 2, 100 mM GTP-g-S + 100 mM NaCl), 93%; in test [3] (Table 2, 100 mM GTP-g-S alone) it was 24%.
As for “[biotinyl-Lys³²]b-endorphin [biotinyl-b-endorphin (F2)]”, in test [2] (setting [5]), the IC50 came to 5 nM.
Regarding `CCC12CCN(CC3(O)CC3)C(Cc3ccc(O)cc31)C2(C)C` (centres unmarked) [bromazocino], the “potency in displacing binding of [³H]DAMGO” value in test [1] was “high potency”.
On the same count and under the same terms, for ethylketocyclazocino the value was “high potency”.
Take NaCl: the “effect of addition to incubations on [³H]DAMGO binding” value in test [4] is recorded as “reduced”.
With b-endorphin, the IC50 in test [2] (setting [5]) amounted to 1 nM; in test [2] (setting [6]) it was 1.2 nM.
Take `Nc1nc2c(ncn2[C@@H]2O[C@H](COP(=O)(O)OP(=O)(O)OP(=O)(O)O)[C@@H](O)[C@H]2O)c(=O)[nH]1` [GTP]: the “effect of addition to incubations on [³H]DAMGO binding” value in test [4] is on record as “reduced”.
As to `CN1CC[C@]23CCCC[C@H]2[C@H]1Cc1ccc(O)cc13` [levorphan], the “potency in displacing [³H]DAMGO binding relative to the pharmacologically inactive isomer” value in test [1] is “substantially greater potency”.
“[biotinyl-Lys³²]b-endorphin [biotinyl-b-endorphin]”: in test [2] (setting [6]), the IC50 turned out to be 1.8 nM.
